Counter-ions that a name gives are not always drawn. Some results are limits rather than exact numbers.

This assay concerns von Bezold-Jarisch reflex evoked by 5-HT. Kind of assay: Antagonism of the von Bezold-Jarisch reflex evoked by 5-HT in the anaesthetised rat. The class given is in vivo. The following applies: urethane-anaesthetised male rats, 5-HT-evoked changes in heart rate, 5-HT usually 6 μg/kg i.v.; for ED50: Rattus norvegicus, iv, read-out: ED50 (concentration required to reduce the 5HT-evoked response to 50% of the control response). On the procedure: Antagonism of the von Bezold-Jarisch reflex
The compounds were evaluated for antagonism of the von Bezold-Jarisch reflex evoked by 5-HT in the anaesthetised rat according to the following method:
Pharmacol. 2, 229-245 (1980). A submaximal dose of 5-HT (usually 6 μg/kg) was given repeatedly by the intravenous route and changes in heart rate quantified. Compounds were given intravenously and the concentration required to reduce the 5HT-evoked response to 50% of the control response (ED50) was then determined.

With `CN1[C@@H]2CC[C@H]1C[C@@H](NC(=O)N1CCc3ccccc31)C2` [Example 2, endo-N-(8-Methyl-8-azabicyclo[3.2.1]oct-3-yl)-2,3-dihydroindole-1-carboxamide], the ED50 was found to be 1.4 µg/kg.

As for `CN1[C@@H]2CC[C@H]1C[C@@H](NC(=O)n1ccc3ccccc31)C2` [Example 11, endo-N-(8-Methyl-8-azabicyclo[3.2.1]oct-3-yl)indole-1-carboxamide hydrochloride], the ED50 stood at 7.7 µg/kg.

In the case of `CCC1CN(C(=O)N[C@H]2C[C@H]3CC[C@@H](C2)N3C)c2ccccc21` (stereo partly drawn) [Example 14, endo-N-(8-Methyl-8-azabicyclo[3.2.1]oct-3-yl)-2,3-dihydro-3-ethylindole-1-carboxamide hydrochloride], the ED50 came to 1 µg/kg.

For the compound `CN1[C@@H]2CC[C@H]1C[C@@H](NC(=O)N1CC(C)(C)c3ccccc31)C2` [Example 5, endo-N-(8-Methyl-8-azabicyclo[3.2.1]oct-3-yl)-2,3-dihydro-3,3-dimethylindole-1-carboxamide], the ED50 amounted to 0.58 µg/kg.

Consider `CC1Cc2ccccc2N1C(=O)N[C@H]1C[C@H]2CC[C@@H](C1)N2C` (stereo partly drawn) [Example 19, (endo)-N-(8-Methyl-8-azabicyclo[3.2.1]oct-3-yl)-2,3-dihydro-2-methylindole-1-carboxamide hydrochloride], for which the ED50 was determined as 0.79 µg/kg.

Regarding `CC1(C)CN(C(=O)NC2CN3CCC2CC3)c2ccccc21` (stereo not shown) [Example 18, N-(1-Azabicyclo[2.2.2]oct-3-yl)2,3-dihydro-3,3-dimethylindole-1-carboxamidehydrochloride], the ED50 turned out to be 5.3 µg/kg.

For the compound `Cc1cn(C(=O)N[C@H]2C[C@H]3CC[C@@H](C2)N3C)c2ccccc12` [Example 6, endo-N-(8-Methyl-8-azabicyclo[3.2.1]oct-3-yl)-3-methylindole-1-carboxamide hydrochloride], the ED50 was 1.6 µg/kg.

For the compound `CN1[C@@H]2CC[C@H]1C[C@@H](NC(=O)N1CCc3cc(Cl)ccc31)C2` [Example 9, endo-N-(8-Methyl-8-azabicyclo[3.2.1]oct-3-yl)-2,3-dihydro-5-chloroindole-1-carboxamide], the ED50 is > 10 µg/kg.

On to `CN1[C@@H]2CCC[C@H]1C[C@@H](NC(=O)N1CCc3ccccc31)C2` [Example 1, endo-N-(9-Methyl-9-azabicyclo[3.3.1]non-3-yl)-2,3-dihydroindole-1-carboxamide], for which the ED50 is 12.5 µg/kg.

Consider `CCc1cn(C(=O)N[C@H]2C[C@H]3CC[C@@H](C2)N3C)c2ccccc12` [Example 15, endo-N-(8-Methyl-8-azabicyclo[3.2.1]-oct-3-yl)-3-ethylindole-1-carboxamide hydrochloride], for which the ED50 was found to be 2 µg/kg.

As for `CC1c2ccccc2N(C(=O)N[C@H]2C[C@H]3CC[C@@H](C2)N3C)C1C` (stereo partly drawn) [Example 20, (endo)-N-(8-Methyl-8-azabicyclo[3.2.1]oct-3-yl)-2,3-dihydro-2,3-dimethylindole-1-carboxamide], the ED50 amounted to 0.53 µg/kg.

Take `CC1N(C(=O)N[C@H]2C[C@H]3CC[C@@H](C2)N3C)c2ccccc2C1(C)C` (stereo partly drawn) [Example 21, (endo)-N-(8-Methyl-8-azabicyclo[3.2.1]oct-3-yl)-2,3-dihydro-2,3,3-trimethylindole-1-carboxamide hydrochloride]: the ED50 was 1.4 µg/kg.

For the compound `CN1[C@@H]2CC[C@H]1C[C@@H](NC(=O)N1CCc3cc(F)ccc31)C2` [Example 8, endo-N-(8-Methyl-8-azabicyclo[3.2.1]oct-3-yl)-5-fluoro-2,3-dihydroindole-1-carboxamide hydrochloride], the ED50 was 17 µg/kg.

Regarding `O=C(OC1CN2CCC1CC2)N1CCc2ccccc21` (stereo not shown) [Example 13, N-(1-Azabicyclo[2.2.2]oct-3-yl)-2,3-dihydroindole-1-carboxylic acid ester], where the note is “i.v.”, the “ED50 (concentration required to reduce the 5HT-evoked response to 50% of the control response)” value was 3.9 µg/kg.

Take `CC(C)C1CN(C(=O)N[C@H]2C[C@H]3CC[C@@H](C2)N3C)c2ccccc21` (stereo partly drawn) [Example 22, (endo)-N-(8-Methyl-8-azabicyclo[3.2.1]oct-3-yl)-2,3-dihydro-3-isopropylindole-1-carboxamide hydrochloride]: the ED50 is 0.56 µg/kg.

Regarding `COc1ccc2c(c1)CCN2C(=O)N[C@H]1C[C@H]2CC[C@@H](C1)N2C` [Example 10, endo-N-(8-Methyl-8-azabicyclo[3.2.1]oct-3-yl)2,3-dihydro-5-methoxyindole-1-carboxamide], the ED50 came to 7 µg/kg.

For the compound `CCN1[C@@H]2CC[C@H]1C[C@@H](NC(=O)N1CCc3ccccc31)C2` [Example 7, endo-N-(8-Ethyl-8-azabicyclo[3.2.1]oct-3-yl)-2,3-dihydroindole-1-carboxamide], the ED50 is > 10 µg/kg.

As for `CC1CN(C(=O)N[C@H]2C[C@H]3CC[C@@H](C2)N3C)c2ccccc21` (stereo partly drawn) [Example 4, endo-N-(8-Methyl-8-azabicyclo[3.2.1]oct-3-yl)-2,3-dihydro-3-methylindole-1-carboxamide hydrochloride], the ED50 amounted to 3 µg/kg.

For `CN1[C@@H]2CC[C@H]1C[C@@H](OC(=O)N1CCc3ccccc31)C2` [Example 3, endo(8-Methyl-8-azabicyclo[3.2.1]oct-3-yl)-2,3-dihydroindole carboxylic acid ester], the ED50 is 5 µg/kg.

Turning to `Cl.O=C(NC1CN2CCC1CC2)N1CCc2ccccc21` (stereo not shown) [Example 12, N-(1-Azabicyclo[2.2.2]oct-3-yl)2,3-dihydroindole-1-carboxamide hydrochloride], the ED50 came out at 4.4 µg/kg.

For the compound `CN1[C@@H]2CC[C@H]1C[C@@H](NC(=O)N1CCc3cc([N+](=O)[O-])ccc31)C2` [Example 16, endo-N-(8-Methyl-8-azabicyclo[3.2.1]oct-3-yl)-2,3-dihydro-5-nitroindole-1-carboxamide], the ED50 is > 10 µg/kg.

For the compound `CN1[C@@H]2CC[C@H]1C[C@@H](NC(=O)N1CCc3ccc([N+](=O)[O-])cc31)C2` [Example 17, endo-N-(8-Methyl-8-azabicyclo[3.2.1]oct-3-yl)-2,3-dihydro-6-nitroindole-1-carboxamide hydrochloride], the ED50 was > 10 µg/kg.

These data come from US4871744A, “Certain 2,3-dihydro-indole-1-carboxamido-N-[8-azabicyclo(3.2.1)octan-3-yl]d e” (priority 1988, dated 1989).
